# Earlier results, collected in US10201537B2 (INFLAMMATORY RESPONSE RESEARCH, INC., priority 2013, dated 2019).
# Like-named read-outs stand apart in the source and are kept apart here.
# Key:
# influenza = conditions: human, in vivo
# [1] = test system: histamine induced wheal and flare; conditions: levocetirizine 5 mg per day vs fexofenadine 180 mg per day
# [2] = in vivo
# [3] = for time to steady state level: montelukast, oral
# [4] = warfarin, theophylline, digoxin, terfenadine, oral contraceptives, prednisone
# [5] = test system: granulocyte and macrophage proliferation; conditions: in vivo
molecule,measurement,setting,value
CCOC(=O)C1=C[C@@H](OC(CC)CC)[C@H](NC(C)=O)[C@@H](N)C1 [oseltamivir],influenza related lower respiratory tract complications,influenza,did not appear to reduce influenza related lower respiratory tract complications
O=C(O)COCCN1CCN([C@H](c2ccccc2)c2ccc(Cl)cc2)CC1 [Levocetirizine],eosinophil migration,eosinophil migration,decrease eosinophil migration
same,effectiveness versus fexofenadine,[1],more effective than fexofenadine
same,principal side effect at higher doses,humans; higher doses,Sedation
same,doses safely administered in humans,humans; in vivo,up to 30 mg/day
same,time to steady state level,[2],40 h
same,"inflammatory mediators IL-4, IL-6, and IL-8","IL-4, IL-6, and IL-8",decrease inflammatory mediators
CC(C)(O)c1ccccc1CC[C@@H](SCC1(CC(=O)O)CC1)c1cccc(/C=C/c2ccc3ccc(Cl)cc3n2)c1 [Montelukast],plasma concentration area under the curve profile,[3]; IV montelukast 7 mg vs 10 mg oral tablet,comparable to the approved 10 mg oral montelukast tablet
same,absorption,[3]; in vivo,rapidly absorbed
same,linear pharmacokinetics to dose,[3]; in vivo,≤ 50 mg
same,time to peak plasma concentration,[3]; in vivo,3 to 4 h
same,time to steady state level,[3],less than two days
same,time to steady state level,[3]; listed as montelukast,within two days
same,effect of a standard meal on oral bioavailability and Cmax,[3]; standard meal,not affected by a standard meal
same,doses without clinically important adverse experiences,"adult patients; adult patients, 22 weeks",up to 200 mg/day
same,doses without clinically important adverse experiences,"adult patients; short-term studies, approximately one week",up to 900 mg/day
same,drug interactions,[4],no drug interactions
"filgrastim (protein, chains of the INN, looked up, N-terminal methionine, non-glycosylated, protein stimulating granulocyte and macrophage proliferation and differentiation) MTPLGPASSLPQSFLLKCLEQVRKIQGDGAALQEKLCATYKLCHPEELVLLGHSLGIPWAPLSSCPSQALQLAGCLSQLHSGLFLYQGLLQALEGISPELGPTLDTLQLDVADFATTIWQQMEELGMAPALQPTQGAMPAFASAFQRRAGGVLVASHLQSFLEVSYRVLRHLAQP",serious reactions,[5],"splenic rupture, ARDS, thrombocytopenia, cutaneous vasculitis, and hemorrhage"
